Measurements from a melting point compilation (Tetko et al.).

Row | Compound | melting point [°C]
1 | Cc1ccnc(Cl)c1O | 97 to 99
2 | CCCNC(=O)CC#N | 53 to 55
3 | CCN1C(=O)CC(=O)NC1=O | 118 to 120
4 | Cc1cc(C=O)c(C)n1CC(C)C | 43 to 47
5 | Cc1nnc(-c2cccc([N+](=O)[O-])c2)o1 | 158 to 160
6 | O=C(c1ccc(Br)cc1)c1ccccc1F | 35 to 37
7 | O=Cc1ccc(-c2cccc(Cl)c2Cl)o1 | 94 to 98
8 | Cc1ccc(-n2c(C)cc(C=O)c2C)cc1 | 102 to 104
9 | O=C(Nc1cccc(Cl)c1)c1ccc(Cl)nc1 | 177 to 179
10 | Clc1ccc2c(Cl)ccc(Cl)c2n1 | 85 to 87
11 | c1ccc2sc(NC3CCCCC3)nc2c1 | 100 to 102
12 | c1ccc(-c2noc(CSc3nnc(-c4ccncc4)o3)n2)cc1 | 134 to 136
13 | NC1CCCCC1Nc1cnccn1 (stereo not drawn) | 59 to 61
14 | Nc1nnc(N)s1 | 192 to 194
15 | Cc1ccc(F)c2c1C(=O)C(=O)N2 | 204 to 206
16 | Cc1cc(N)n(Cc2ccccc2)n1 | 68 to 70
17 | N#Cc1c2c(n(-c3ccccc3)c1NC(=O)CCl)CCCC2 | 156 to 158
18 | O=c1cc(CCl)c2ccc(Br)cc2o1 | 160 to 162
19 | O=C1C=CC(=O)N1c1cccc(O)c1 | 113 to 115
20 | COc1cc(C=O)cc(Cl)c1O | 162 to 166

Row | Compound | melting point [°C]
21 | Cc1ccn(-c2cc(CO)ccn2)n1 | 92 to 94
22 | Nc1ccccc1N1CCc2ccccc2C1 | 114 to 116
23 | N#Cc1ccc2c(c1)CCCC2=O | 132 to 134
24 | Cc1cccc(Cl)c1S(N)(=O)=O | 119 to 121
25 | N#CCCNc1cccc(Cl)c1 | 141 to 143
26 | N#CCC(=O)c1cccc([N+](=O)[O-])c1 | 149 to 151
27 | Nc1cc(Cl)ccc1-n1cnnn1 | 130 to 132
28 | ClC1=Nc2c(cnn2-c2ccccc2)CN1 | 189 to 191
29 | COc1ccccc1-c1nn(Cc2ccccc2)cc1C(=O)O | 152 to 154
30 | O=C(c1cc(Br)c(S(=O)(=O)Cl)[nH]1)C(Cl)(Cl)Cl | 144 to 146
31 | O=C1c2ccccc2C(=O)N1CCCc1nn[nH]n1 | 79 to 81
32 | COC(=O)c1ccc(OCc2ccccc2)c(N)c1 | 96 to 98
33 | O=C(O)CCCN1C(=O)c2cccc3cccc(c23)C1=O | 86 to 88
34 | CC(O)Cc1ccc2ccccc2n1 (stereo not drawn) | 64 to 66
35 | NCC1(O)CCS(=O)(=O)CC1 | 175 to 177
36 | NC(=O)C1CCOC1 (stereo not drawn) | 109 to 111
37 | O=C(Nc1cccc(Br)c1)c1ccccc1 | 136 to 138
38 | Cc1nnc(-c2cccc(N)c2)o1 | 136 to 138
39 | Clc1nc(-c2cccnc2)nc2scc(-c3ccccc3)c12 | 155 to 157

Next, values leading:

Row | melting point [°C] | Compound
40 | 173 to 175 | CN(CCCC(=O)O)C(=O)c1cc(S(N)(=O)=O)cn1C
41 | 199 to 201 | Cc1cc(C(=O)O)on1
42 | 118 to 120 | CCOC(=O)c1cc(-c2ccccc2)sc1N
43 | 194 to 196 | NC(=O)c1c[nH]cn1
44 | 160 to 162 | O=C(O)c1cc(F)c(O)c(F)c1
45 | 53 to 55 | C=CCNS(=O)(=O)C(C)(C)C
46 | 199 to 201 | O=C(O)c1ccc2c(c1Cl)C(=O)c1ccccc1C2=O
47 | 148 to 150 | Cn1cnc(-c2ccc(F)cc2)c1N
48 | 74 to 76 | Nc1ccc(N2CCOCC2)cc1C(F)(F)F
49 | 152 to 154 | Cc1ncc(C(=O)O)c(Cl)c1Br
50 | 319 to 321 | CNC(=O)c1cnc(C)[nH]c1=O
51 | 73 to 75 | O=[N+]([O-])c1ccc(OCC(F)(F)F)cc1
52 | 172 to 174 | COc1ccc(S(=O)(=O)NC(C(=O)O)C(C)C)cc1 (stereo not drawn)
53 | 149 to 151 | Cc1ccc(C)c(S(N)(=O)=O)c1
54 | 110 to 112 | CC(C)(C)n1ncc(C(=O)O)c1C(F)(F)F
55 | 199 to 201 | O=C(O)c1cccn1-c1ccc(I)cc1
56 | 48 to 50 | COC(=O)c1cc(S(=O)(=O)Cl)cnc1Cl

Row | melting point [°C] | Compound
57 | 131 to 133 | COc1ccc(N)cc1S(=O)(=O)N1CCOCC1
58 | 130 to 132 | CC(C)(C)OC(=O)NCCNC(=O)C1CCCNC1 (stereo not drawn)
59 | 126 to 128 | CS(=O)(=O)N1CCc2ccccc2C1CC(=O)O (stereo not drawn)
60 | 321 to 323 | O=C1COc2cc(C(=O)O)ccc2N1
61 | 152 to 154 | O=C(O)CNC(=O)C(F)(F)F
62 | 115 to 117 | CSCCC(NC(=O)c1cccc(C)c1)C(=O)O (stereo not drawn)
63 | 162 to 164 | Cc1nn(-c2ccccc2)c(C)c1C(O)C(F)(F)F (stereo not drawn)
64 | 194 to 196 | CN(C)c1cc(C(=O)O)cc(Cl)n1
65 | 167 to 169 | O=C(O)c1cc(I)cc([N+](=O)[O-])c1
66 | 170 to 172 | CCCC(NC(N)=O)C(=O)O (stereo not drawn)
67 | 147 to 149 | Nc1ccc(Cl)cc1C(=O)NC1CC1
68 | 109 to 111 | O=C(O)CC(Br)C(=O)c1ccc(Br)cc1 (stereo not drawn)
69 | 196 to 198 | NC(=O)c1ccc(N2CCSCC2)c(N)c1
70 | 199 to 201 | CCOC(=O)c1cnc(C)c(C(=O)O)c1
71 | 93 to 95 | O=C(O)c1cc(Cl)cc(Cl)n1
72 | 193 to 195 | O=C(O)C(Cc1ccccc1)N1C(=O)C=CC1=O (stereo not drawn)
73 | 112 to 114 | Nc1cnccc1CO
